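Grown in 96-well plates, cells were treated for 48 hours with each compound at five concentrations. Insufficient inhibition: endpoint recorded as highest concentration tested. GI50 is the concentration that inhibits growth by half. TGI is the concentration that stops growth completely.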
Each compound was assayed on OVCAR-5 ovarian (assay: NCI tumour cell line growth inhibition, 48 h).

SMILES	GI50	TGI
COc1cc(C2=NOC(c3cc(OC)c(OC)c(OC)c3)C2)ccc1OCCCCOc1cc2c(cc1OC)C(=O)N1CCC[C@H]1C=N2 (some centres undefined)	0.4 µM	1.26 µM
N#Cc1ccc(NC(=O)Nc2ccc(Oc3ccc(NC(=O)Nc4ccc(C#N)cc4)cc3)cc2)cc1	26.1 µM	> 100 µM
Nc1cc(N)c2nc(-c3ccccc3)c(Nc3ccc(Cl)c(Cl)c3)nc2c1	28 µM	48.7 µM
O=C(Cc1ccccc1)NN1C(=O)/C(=C\c2ccc([N+](=O)[O-])cc2)SC1=Nc1ccccc1	–	> 100 µM

These compounds were tested on HCT-116 colon (assay: NCI tumour cell line growth inhibition, 48 h).

SMILES	GI50	TGI
COc1cc(C2=NOC(c3cc(OC)c(OC)c(OC)c3)C2)ccc1OCCCCOc1cc2c(cc1OC)C(=O)N1CCC[C@H]1C=N2 (some centres undefined)	0.216 µM	0.575 µM
N#Cc1ccc(NC(=O)Nc2ccc(Oc3ccc(NC(=O)Nc4ccc(C#N)cc4)cc3)cc2)cc1	4.02 µM	> 100 µM
COc1ccc(-c2c(C#N)c(N)nc3c2CCS(=O)(=O)c2ccccc2-3)cc1	–	> 100 µM
Nc1cc(N)c2nc(-c3ccccc3)c(Nc3ccc(Cl)c(Cl)c3)nc2c1	10.6 µM	53 µM
O=C(Cc1ccccc1)NN1C(=O)/C(=C\c2ccc([N+](=O)[O-])cc2)SC1=Nc1ccccc1	–	> 100 µM

These compounds were tested on K-562 leukemia (assay: NCI tumour cell line growth inhibition, 48 h).

SMILES	GI50	TGI
COc1cc(C2=NOC(c3cc(OC)c(OC)c(OC)c3)C2)ccc1OCCCCOc1cc2c(cc1OC)C(=O)N1CCC[C@H]1C=N2 (some centres undefined)	1.72 µM	–
N#Cc1ccc(NC(=O)Nc2ccc(Oc3ccc(NC(=O)Nc4ccc(C#N)cc4)cc3)cc2)cc1	2.11 µM	> 100 µM
COc1ccc(-c2c(C#N)c(N)nc3c2CCS(=O)(=O)c2ccccc2-3)cc1	–	> 100 µM
Nc1cc(N)c2nc(-c3ccccc3)c(Nc3ccc(Cl)c(Cl)c3)nc2c1	3.57 µM	> 100 µM
O=C(Cc1ccccc1)NN1C(=O)/C(=C\c2ccc([N+](=O)[O-])cc2)SC1=Nc1ccccc1	–	> 100 µM

These compounds were tested on U251 CNS (assay: NCI tumour cell line growth inhibition, 48 h).

SMILES	GI50	TGI
COc1cc(C2=NOC(c3cc(OC)c(OC)c(OC)c3)C2)ccc1OCCCCOc1cc2c(cc1OC)C(=O)N1CCC[C@H]1C=N2 (some centres undefined)	0.315 µM	1.1 µM
N#Cc1ccc(NC(=O)Nc2ccc(Oc3ccc(NC(=O)Nc4ccc(C#N)cc4)cc3)cc2)cc1	4.85 µM	27.8 µM
COc1ccc(-c2c(C#N)c(N)nc3c2CCS(=O)(=O)c2ccccc2-3)cc1	–	> 100 µM
Nc1cc(N)c2nc(-c3ccccc3)c(Nc3ccc(Cl)c(Cl)c3)nc2c1	4.68 µM	> 100 µM
O=C(Cc1ccccc1)NN1C(=O)/C(=C\c2ccc([N+](=O)[O-])cc2)SC1=Nc1ccccc1	–	> 100 µM

Each compound was assayed on SF-268 CNS (assay: NCI tumour cell line growth inhibition, 48 h).

SMILES	GI50	TGI
COc1cc(C2=NOC(c3cc(OC)c(OC)c(OC)c3)C2)ccc1OCCCCOc1cc2c(cc1OC)C(=O)N1CCC[C@H]1C=N2 (some centres undefined)	0.4 µM	5.68 µM
N#Cc1ccc(NC(=O)Nc2ccc(Oc3ccc(NC(=O)Nc4ccc(C#N)cc4)cc3)cc2)cc1	10.8 µM	> 100 µM
COc1ccc(-c2c(C#N)c(N)nc3c2CCS(=O)(=O)c2ccccc2-3)cc1	–	> 100 µM
Nc1cc(N)c2nc(-c3ccccc3)c(Nc3ccc(Cl)c(Cl)c3)nc2c1	12 µM	28.6 µM
O=C(Cc1ccccc1)NN1C(=O)/C(=C\c2ccc([N+](=O)[O-])cc2)SC1=Nc1ccccc1	–	> 100 µM

What follows are compounds tested on SN12C renal (assay: NCI tumour cell line growth inhibition, 48 h).

SMILES	GI50	TGI
COc1cc(C2=NOC(c3cc(OC)c(OC)c(OC)c3)C2)ccc1OCCCCOc1cc2c(cc1OC)C(=O)N1CCC[C@H]1C=N2 (some centres undefined)	0.358 µM	3.51 µM
N#Cc1ccc(NC(=O)Nc2ccc(Oc3ccc(NC(=O)Nc4ccc(C#N)cc4)cc3)cc2)cc1	25.3 µM	> 100 µM
COc1ccc(-c2c(C#N)c(N)nc3c2CCS(=O)(=O)c2ccccc2-3)cc1	–	> 100 µM
Nc1cc(N)c2nc(-c3ccccc3)c(Nc3ccc(Cl)c(Cl)c3)nc2c1	12.7 µM	31.8 µM
O=C(Cc1ccccc1)NN1C(=O)/C(=C\c2ccc([N+](=O)[O-])cc2)SC1=Nc1ccccc1	–	> 100 µM

What follows are compounds tested on SR leukemia (assay: NCI tumour cell line growth inhibition, 48 h).

SMILES	GI50	TGI
COc1cc(C2=NOC(c3cc(OC)c(OC)c(OC)c3)C2)ccc1OCCCCOc1cc2c(cc1OC)C(=O)N1CCC[C@H]1C=N2 (some centres undefined)	0.279 µM	–
COc1ccc(-c2c(C#N)c(N)nc3c2CCS(=O)(=O)c2ccccc2-3)cc1	–	> 100 µM
Nc1cc(N)c2nc(-c3ccccc3)c(Nc3ccc(Cl)c(Cl)c3)nc2c1	2.56 µM	15.5 µM

The compounds below were run on RPMI-8226 leukemia (assay: NCI tumour cell line growth inhibition, 48 h).

SMILES	GI50	TGI
COc1cc(C2=NOC(c3cc(OC)c(OC)c(OC)c3)C2)ccc1OCCCCOc1cc2c(cc1OC)C(=O)N1CCC[C@H]1C=N2 (some centres undefined)	0.271 µM	0.682 µM
N#Cc1ccc(NC(=O)Nc2ccc(Oc3ccc(NC(=O)Nc4ccc(C#N)cc4)cc3)cc2)cc1	0.994 µM	39.6 µM
Nc1cc(N)c2nc(-c3ccccc3)c(Nc3ccc(Cl)c(Cl)c3)nc2c1	2 µM	4.92 µM
O=C(Cc1ccccc1)NN1C(=O)/C(=C\c2ccc([N+](=O)[O-])cc2)SC1=Nc1ccccc1	–	> 100 µM

These compounds were tested on CCRF-CEM leukemia (assay: NCI tumour cell line growth inhibition, 48 h).

SMILES	GI50	TGI
COc1cc(C2=NOC(c3cc(OC)c(OC)c(OC)c3)C2)ccc1OCCCCOc1cc2c(cc1OC)C(=O)N1CCC[C@H]1C=N2 (some centres undefined)	0.164 µM	0.466 µM
N#Cc1ccc(NC(=O)Nc2ccc(Oc3ccc(NC(=O)Nc4ccc(C#N)cc4)cc3)cc2)cc1	22.1 µM	> 100 µM
COc1ccc(-c2c(C#N)c(N)nc3c2CCS(=O)(=O)c2ccccc2-3)cc1	–	> 100 µM
O=C(Cc1ccccc1)NN1C(=O)/C(=C\c2ccc([N+](=O)[O-])cc2)SC1=Nc1ccccc1	–	> 100 µM

Each compound was assayed on MOLT-4 leukemia (assay: NCI tumour cell line growth inhibition, 48 h).

SMILES	GI50	TGI
COc1cc(C2=NOC(c3cc(OC)c(OC)c(OC)c3)C2)ccc1OCCCCOc1cc2c(cc1OC)C(=O)N1CCC[C@H]1C=N2 (some centres undefined)	0.299 µM	–
N#Cc1ccc(NC(=O)Nc2ccc(Oc3ccc(NC(=O)Nc4ccc(C#N)cc4)cc3)cc2)cc1	1.12 µM	37.7 µM
Nc1cc(N)c2nc(-c3ccccc3)c(Nc3ccc(Cl)c(Cl)c3)nc2c1	4.05 µM	> 100 µM
O=C(Cc1ccccc1)NN1C(=O)/C(=C\c2ccc([N+](=O)[O-])cc2)SC1=Nc1ccccc1	–	> 100 µM

The compounds below were run on HOP-92 NSCLC (assay: NCI tumour cell line growth inhibition, 48 h).

SMILES	GI50	TGI
COc1cc(C2=NOC(c3cc(OC)c(OC)c(OC)c3)C2)ccc1OCCCCOc1cc2c(cc1OC)C(=O)N1CCC[C@H]1C=N2 (some centres undefined)	0.339 µM	3.08 µM
N#Cc1ccc(NC(=O)Nc2ccc(Oc3ccc(NC(=O)Nc4ccc(C#N)cc4)cc3)cc2)cc1	13.3 µM	62.7 µM
COc1ccc(-c2c(C#N)c(N)nc3c2CCS(=O)(=O)c2ccccc2-3)cc1	–	> 100 µM
O=C(Cc1ccccc1)NN1C(=O)/C(=C\c2ccc([N+](=O)[O-])cc2)SC1=Nc1ccccc1	–	> 100 µM

Each compound was assayed on LOX IMVI melanoma (assay: NCI tumour cell line growth inhibition, 48 h).

SMILES	GI50	TGI
COc1cc(C2=NOC(c3cc(OC)c(OC)c(OC)c3)C2)ccc1OCCCCOc1cc2c(cc1OC)C(=O)N1CCC[C@H]1C=N2 (some centres undefined)	0.215 µM	0.495 µM
N#Cc1ccc(NC(=O)Nc2ccc(Oc3ccc(NC(=O)Nc4ccc(C#N)cc4)cc3)cc2)cc1	15.7 µM	> 100 µM
COc1ccc(-c2c(C#N)c(N)nc3c2CCS(=O)(=O)c2ccccc2-3)cc1	–	> 100 µM
Nc1cc(N)c2nc(-c3ccccc3)c(Nc3ccc(Cl)c(Cl)c3)nc2c1	4.38 µM	> 100 µM

The compounds below were run on ACHN renal (assay: NCI tumour cell line growth inhibition, 48 h).

SMILES	GI50	TGI
COc1cc(C2=NOC(c3cc(OC)c(OC)c(OC)c3)C2)ccc1OCCCCOc1cc2c(cc1OC)C(=O)N1CCC[C@H]1C=N2 (some centres undefined)	0.243 µM	0.523 µM
N#Cc1ccc(NC(=O)Nc2ccc(Oc3ccc(NC(=O)Nc4ccc(C#N)cc4)cc3)cc2)cc1	18.8 µM	> 100 µM
COc1ccc(-c2c(C#N)c(N)nc3c2CCS(=O)(=O)c2ccccc2-3)cc1	–	> 100 µM
O=C(Cc1ccccc1)NN1C(=O)/C(=C\c2ccc([N+](=O)[O-])cc2)SC1=Nc1ccccc1	–	> 100 µM

The compounds below were run on KM12 colon (assay: NCI tumour cell line growth inhibition, 48 h).

SMILES	GI50	TGI
COc1cc(C2=NOC(c3cc(OC)c(OC)c(OC)c3)C2)ccc1OCCCCOc1cc2c(cc1OC)C(=O)N1CCC[C@H]1C=N2 (some centres undefined)	0.298 µM	0.882 µM
N#Cc1ccc(NC(=O)Nc2ccc(Oc3ccc(NC(=O)Nc4ccc(C#N)cc4)cc3)cc2)cc1	11.2 µM	> 100 µM
COc1ccc(-c2c(C#N)c(N)nc3c2CCS(=O)(=O)c2ccccc2-3)cc1	–	> 100 µM
Nc1cc(N)c2nc(-c3ccccc3)c(Nc3ccc(Cl)c(Cl)c3)nc2c1	5.89 µM	24.6 µM
O=C(Cc1ccccc1)NN1C(=O)/C(=C\c2ccc([N+](=O)[O-])cc2)SC1=Nc1ccccc1	–	> 100 µM

These compounds were tested on IGROV1 ovarian (assay: NCI tumour cell line growth inhibition, 48 h).

SMILES	GI50	TGI
COc1cc(C2=NOC(c3cc(OC)c(OC)c(OC)c3)C2)ccc1OCCCCOc1cc2c(cc1OC)C(=O)N1CCC[C@H]1C=N2 (some centres undefined)	0.243 µM	0.537 µM
N#Cc1ccc(NC(=O)Nc2ccc(Oc3ccc(NC(=O)Nc4ccc(C#N)cc4)cc3)cc2)cc1	30.4 µM	> 100 µM
COc1ccc(-c2c(C#N)c(N)nc3c2CCS(=O)(=O)c2ccccc2-3)cc1	–	> 100 µM
Nc1cc(N)c2nc(-c3ccccc3)c(Nc3ccc(Cl)c(Cl)c3)nc2c1	4.92 µM	21.1 µM
O=C(Cc1ccccc1)NN1C(=O)/C(=C\c2ccc([N+](=O)[O-])cc2)SC1=Nc1ccccc1	–	> 100 µM

— PubChem BioAssay (NCI)
